Experimental data taken from patent US11530206B2, “Phenylaminopyrimidine amide autophagy inhibitors and methods of use thereof” (Deciphera Pharmaceuticals, LLC, priority 2019, dated 2022).

These molecules were tested against T1, ULK1 kinase (Homo sapiens, UniProt O75385, E37A/K38A) (assay: Biochemical assay for ULK1.3 (coupled pyruvate kinase/lactate dehydrogenase assay, peptide substrate)). Details: 0.1 nM ULK1 (residues 1-283), 1 mM ATP.
T1 construct: purchased Beryllium
T1 sequence (O75385 1-283 E37A/K38A): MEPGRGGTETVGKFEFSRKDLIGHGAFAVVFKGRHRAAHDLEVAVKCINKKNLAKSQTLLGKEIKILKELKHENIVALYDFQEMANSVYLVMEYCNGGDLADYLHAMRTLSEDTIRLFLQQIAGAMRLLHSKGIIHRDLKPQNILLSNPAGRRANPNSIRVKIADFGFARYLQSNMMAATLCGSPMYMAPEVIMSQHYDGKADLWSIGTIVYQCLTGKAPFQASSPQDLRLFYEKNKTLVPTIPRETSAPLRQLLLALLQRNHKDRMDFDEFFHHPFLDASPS
Procedure: Biochemical Assay for ULK1.3 (SEQ. ID NO: 2)
Inhibition of ULK1 was measured by adding serial diluted test compound (final assay concentration of 1% DMSO). A decrease in absorption at 340 nm was monitored continuously for 6 hours at 30° C. on a multi-mode microplate reader (BioTek). The reaction rate was calculated using the 2-3 h time frame. The reaction rate at each concentration of compound was converted to percent inhibition using controls (i.e. reaction with no test compound and reaction with a known inhibitor) and IC50 values were calculated using software routines in Prism (GraphPad software).

IC50	Structure (SMILES)
1 to 25 nM	CCc1cc(N2C[C@H]3C[C@@H]2CN3C)ccc1Nc1ncc(C(F)(F)F)c(NCCCN2CCOCCC2=O)n1 [Example 124]
1 to 25 nM	CCc1cc(N2CCN3CCC[C@H]3C2)ccc1Nc1ncc(C(F)(F)F)c(NCCCN2CCOCCC2=O)n1 [Example 122]
25 to 100 nM	CC(C)c1cc(N2CCN(C)CC2)ccc1Nc1ncc(Br)c(NCCCN2CCOCCC2=O)n1 [Example 87]
1 to 25 nM	CN1CCN(c2ccc(Nc3ncc(C(F)(F)F)c(NCCCN4CCOCCC4=O)n3)c(Cl)c2)CC1 [Example 132]
1 to 25 nM	CCc1cc(N2CCN(C)CC2)ccc1Nc1cc(NCCCN2CCOCCC2=O)c(C(F)(F)F)cn1 [Example 92]
1 to 25 nM	CN1CCN(c2ccc(Nc3ncc(C(F)(F)F)c(NCCCN4CCOCCC4=O)n3)c(Br)c2)CC1 [Example 131]
25 to 100 nM	CN1C[C@@H]2C[C@H]1CN2c1ccc(Nc2ncc(C(F)(F)F)c(NCCCN3CCOCCC3=O)n2)c(C2CC2)c1 [Example 116]
1 to 25 nM	CC(C)c1cc(N2CCN(C)CC2)ccc1Nc1ncc(C(F)(F)F)c(NCCCN2CCCCC2=O)n1 [Example 33]
1 to 25 nM	CCc1cc(N2CCCN(C)CC2)ccc1Nc1ncc(C(F)(F)F)c(NCCCN2CCOCCC2=O)n1 [Example 79]

Structure (SMILES)	IC50
CCc1cc(N2CC3CCC(C2)N3C)ccc1Nc1ncc(C(F)(F)F)c(NCCCN2CCCCC2=O)n1 [Example 68]	1 to 25 nM

The molecules below were run on ULK kinase (assay: pATG13 levels of mutant KRas A549 cells after treatment with ULK inhibitors in combination with trametinib (ELISA)). Details: A549 (KRAS mutant) lung cancer cells, 250 nM trametinib, overnight, pS318-ATG13.
Type: cell-based, human
Procedure: Cellular Inhibition of ULK Kinase Substrate ATG13 Protein pATG13 Levels of Mutant KRas A549 Cells after Treatment with ULK Inhibitors in Combination with Trametinib
(§1) A549 (KRAS mutant) human lung cancer cells (6,000 cells/well) were added to a 384-well tissue-culture treated plate in 50 μL of pre-warmed DMEM medium supplemented with 10% characterized fetal bovine serum (Invitrogen, Carlsbad, Calif.), 100 units/mL penicillin G, and 100 μg/mL streptomycin and allowed to grow overnight at 37° C., 5% CO2, and 95% humidity. The following day, 10 μL of media containing trametinib or DMSO as a control was added to wells. […] A dose response of a test compound (0.6 μL per well) was added. DMSO (0.6 μL) was added to control wells. The plate was briefly shaken to mix wells and then incubated at 37° C. overnight. The next day, the media was aspirated and cells were washed with Dulbecco's Phosphate Buffered Saline (Gibco). Cells were lysed using MPER lysis buffer (Pierce, Rockford, Ill.) containing Halt Phosphatase and Protease Inhibitors (Pierce, Rockford, Ill.) and Phosphatase inhibitor cocktail 2 (Sigma, St. Louis, Mo.) at 4° C. for 10 minutes with shaking.
(§2) Plate wells were washed with ELISA wash buffer. Cell lysate was added to wells and incubated at room temperature for 2 hours. Plate wells were washed with ELISA wash buffer. […] Plate wells were washed with ELISA wash buffer. […] Plate wells were washed with ELISA wash buffer. […] The reaction was stopped with 2N Sulfuric Acid. The plate was analyzed at on a plate reader measuring absorbance at 450 nm and 540 nm (background). Signal was calculated by first subtracting the background absorbance at 540 nm from the absorbance at 450 nm for each well. Next, the background corrected absorbance at 450 nm from blank wells was subtracted from test wells. Data was compared to control wells to determine % ATG13 phosphorylation. GraphPad Prism was used to calculate IC50 values.

IC50	Structure (SMILES)
10 to 100 nM	CCc1cc(N2C[C@H]3C[C@@H]2CN3C)ccc1Nc1ncc(C(F)(F)F)c(NCCCN2CCOCCC2=O)n1 [Example 124]
300 to 600 nM	CCc1cc(N2CCN3CCC[C@H]3C2)ccc1Nc1ncc(C(F)(F)F)c(NCCCN2CCOCCC2=O)n1 [Example 122]
300 to 600 nM	CC(C)c1cc(N2CCN(C)CC2)ccc1Nc1ncc(Br)c(NCCCN2CCOCCC2=O)n1 [Example 87]
100 to 300 nM	CN1CCN(c2ccc(Nc3ncc(C(F)(F)F)c(NCCCN4CCOCCC4=O)n3)c(Cl)c2)CC1 [Example 132]
300 to 600 nM	CCc1cc(N2CCN(C)CC2)ccc1Nc1cc(NCCCN2CCOCCC2=O)c(C(F)(F)F)cn1 [Example 92]
100 to 300 nM	CN1CCN(c2ccc(Nc3ncc(C(F)(F)F)c(NCCCN4CCOCCC4=O)n3)c(Br)c2)CC1 [Example 131]
100 to 300 nM	CN1C[C@@H]2C[C@H]1CN2c1ccc(Nc2ncc(C(F)(F)F)c(NCCCN3CCOCCC3=O)n2)c(C2CC2)c1 [Example 116]
100 to 300 nM	CC(C)c1cc(N2CCN(C)CC2)ccc1Nc1ncc(C(F)(F)F)c(NCCCN2CCCCC2=O)n1 [Example 33]
100 to 300 nM	CCc1cc(N2CCCN(C)CC2)ccc1Nc1ncc(C(F)(F)F)c(NCCCN2CCOCCC2=O)n1 [Example 79]

Structure (SMILES)	IC50
CCc1cc(N2CC3CCC(C2)N3C)ccc1Nc1ncc(C(F)(F)F)c(NCCCN2CCCCC2=O)n1 [Example 68]	10 to 100 nM

Each molecule was assayed on ULK kinase (assay: pATG13 levels of mutant KRas MiaPaCa-2 cells after treatment with ULK inhibitors in combination with trametinib (ELISA)). Details: MiaPaCa-2 pancreatic cancer cells, 250 nM trametinib, overnight, pS318-ATG13.
Type: cell-based, human
Procedure: as §1, with “MiaPaCa-2” for “A549 (KRAS mutant)”, “pancreatic” for “lung”, “(10000” for “(6,000”, “G, 100 µg/mL streptomycin,” for “G,”, “2.5% Horse Serum” for “100 μg/mL streptomycin”
as §2

IC50	Structure (SMILES)
10 to 100 nM	CCc1cc(N2C[C@H]3C[C@@H]2CN3C)ccc1Nc1ncc(C(F)(F)F)c(NCCCN2CCOCCC2=O)n1 [Example 124]
100 to 300 nM	CCc1cc(N2CCN3CCC[C@H]3C2)ccc1Nc1ncc(C(F)(F)F)c(NCCCN2CCOCCC2=O)n1 [Example 122]
300 to 600 nM	CC(C)c1cc(N2CCN(C)CC2)ccc1Nc1ncc(Br)c(NCCCN2CCOCCC2=O)n1 [Example 87]
10 to 100 nM	CN1CCN(c2ccc(Nc3ncc(C(F)(F)F)c(NCCCN4CCOCCC4=O)n3)c(Cl)c2)CC1 [Example 132]
100 to 300 nM	CCc1cc(N2CCN(C)CC2)ccc1Nc1cc(NCCCN2CCOCCC2=O)c(C(F)(F)F)cn1 [Example 92]
300 to 600 nM	CN1CCN(c2ccc(Nc3ncc(C(F)(F)F)c(NCCCN4CCOCCC4=O)n3)c(Br)c2)CC1 [Example 131]
10 to 100 nM	CN1C[C@@H]2C[C@H]1CN2c1ccc(Nc2ncc(C(F)(F)F)c(NCCCN3CCOCCC3=O)n2)c(C2CC2)c1 [Example 116]
10 to 100 nM	CC(C)c1cc(N2CCN(C)CC2)ccc1Nc1ncc(C(F)(F)F)c(NCCCN2CCCCC2=O)n1 [Example 33]
10 to 100 nM	CCc1cc(N2CCCN(C)CC2)ccc1Nc1ncc(C(F)(F)F)c(NCCCN2CCOCCC2=O)n1 [Example 79]

Structure (SMILES)	IC50
CCc1cc(N2CC3CCC(C2)N3C)ccc1Nc1ncc(C(F)(F)F)c(NCCCN2CCCCC2=O)n1 [Example 68]	10 to 100 nM

These molecules were tested against T2, LRRK2 kinase (Homo sapiens, UniProt Q5S007) (assay: Biochemical assay for LRRK2 (coupled pyruvate kinase/lactate dehydrogenase assay)). Details: 26.4 nM LRRK2 (residues 970-2528), peptide substrate, 1 mM ATP.
T2 construct: purchased Thermo Fisher
T2 sequence (Q5S007 with tags, fused parts or gaps): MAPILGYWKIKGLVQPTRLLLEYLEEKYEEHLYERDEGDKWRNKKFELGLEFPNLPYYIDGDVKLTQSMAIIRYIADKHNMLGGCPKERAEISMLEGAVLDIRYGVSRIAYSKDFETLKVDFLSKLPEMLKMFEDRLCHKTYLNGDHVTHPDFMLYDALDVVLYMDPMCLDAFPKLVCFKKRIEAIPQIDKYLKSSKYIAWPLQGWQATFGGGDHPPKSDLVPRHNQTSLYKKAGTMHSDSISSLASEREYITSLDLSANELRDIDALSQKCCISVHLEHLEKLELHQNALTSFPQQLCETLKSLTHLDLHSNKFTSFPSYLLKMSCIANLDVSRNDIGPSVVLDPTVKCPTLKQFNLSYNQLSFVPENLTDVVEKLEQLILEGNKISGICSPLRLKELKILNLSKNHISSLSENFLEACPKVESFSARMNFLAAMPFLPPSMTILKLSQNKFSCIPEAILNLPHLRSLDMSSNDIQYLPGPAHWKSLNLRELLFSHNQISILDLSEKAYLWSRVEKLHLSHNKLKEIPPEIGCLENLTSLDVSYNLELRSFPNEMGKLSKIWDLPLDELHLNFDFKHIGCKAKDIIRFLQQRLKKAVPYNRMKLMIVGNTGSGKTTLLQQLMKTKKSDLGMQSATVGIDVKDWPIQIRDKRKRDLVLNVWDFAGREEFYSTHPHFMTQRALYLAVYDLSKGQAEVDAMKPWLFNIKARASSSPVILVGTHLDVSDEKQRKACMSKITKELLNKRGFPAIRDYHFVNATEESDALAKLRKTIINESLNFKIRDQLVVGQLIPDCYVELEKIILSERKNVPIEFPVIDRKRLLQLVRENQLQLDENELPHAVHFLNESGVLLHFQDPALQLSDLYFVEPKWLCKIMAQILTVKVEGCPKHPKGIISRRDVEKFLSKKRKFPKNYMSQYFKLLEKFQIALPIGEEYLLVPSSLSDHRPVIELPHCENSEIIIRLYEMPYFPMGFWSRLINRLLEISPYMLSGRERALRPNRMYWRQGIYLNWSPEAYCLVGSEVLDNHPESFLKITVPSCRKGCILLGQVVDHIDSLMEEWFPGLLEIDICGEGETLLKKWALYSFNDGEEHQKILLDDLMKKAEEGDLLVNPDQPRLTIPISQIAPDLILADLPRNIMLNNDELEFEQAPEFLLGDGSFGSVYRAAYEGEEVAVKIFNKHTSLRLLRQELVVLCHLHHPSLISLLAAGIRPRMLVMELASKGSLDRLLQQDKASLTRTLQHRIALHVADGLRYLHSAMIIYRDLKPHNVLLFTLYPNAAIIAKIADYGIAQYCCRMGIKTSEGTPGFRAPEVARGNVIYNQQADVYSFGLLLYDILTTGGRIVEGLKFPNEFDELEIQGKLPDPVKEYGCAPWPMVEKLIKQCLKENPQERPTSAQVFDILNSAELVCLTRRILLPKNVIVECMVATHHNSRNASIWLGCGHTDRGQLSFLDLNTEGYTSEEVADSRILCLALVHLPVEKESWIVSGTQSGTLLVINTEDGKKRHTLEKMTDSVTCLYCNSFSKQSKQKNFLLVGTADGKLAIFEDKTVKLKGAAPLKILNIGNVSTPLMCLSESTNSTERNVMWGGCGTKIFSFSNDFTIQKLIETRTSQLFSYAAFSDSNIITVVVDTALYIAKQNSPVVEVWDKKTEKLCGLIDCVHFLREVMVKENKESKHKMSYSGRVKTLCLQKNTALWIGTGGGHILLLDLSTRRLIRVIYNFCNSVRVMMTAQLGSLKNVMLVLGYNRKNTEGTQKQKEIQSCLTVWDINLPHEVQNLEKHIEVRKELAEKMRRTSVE
Procedure: Example 138. Biochemical Assay for LRRK2 (SEQ. ID NO: 4)
Activity of LRRK2 kinase was determined spectroscopically using a coupled pyruvate kinase/lactate dehydrogenase assay that continuously monitors the ATP hydrolysis-dependent oxidation of NADH (e.g., Schindler et al. Science (2000) 289: 1938-1942). Assays were conducted in 384-well plates (100 μL final volume) using 26.4 nM LRRK2 (Thermo Fisher), 0.1 mM peptide substrate ([…] (SEQ ID NO: 6)), 1.5 units pyruvate kinase, 2.1 units lactate dehydrogenase, 1 mM phosphoenol pyruvate, 0.28 mM NADH and 1 mM ATP in assay buffer (100 mM Tris, pH 7.5, 15 mM MgCl2, 0.5 mM DTT, 0.004% (w/v) BSA, and 0.004% Triton X-100). Inhibition of LRRK2 was measured by adding serial diluted test compound (final assay concentration of 1% DMSO). A decrease in absorption at 340 nm was monitored continuously for 6 hours at 30° C. on a multi-mode microplate reader (BioTek). The reaction rate was calculated using the 2-3 h time frame. The reaction rate at each concentration of compound was converted to percent inhibition using controls (i.e. reaction with no test compound and reaction with a known inhibitor) and IC50 values were calculated using software routines in Prism (GraphPad software).

IC50	Structure (SMILES)
100 to 300 nM	CCc1cc(N2C[C@H]3C[C@@H]2CN3C)ccc1Nc1ncc(C(F)(F)F)c(NCCCN2CCOCCC2=O)n1 [Example 124]
1 to 100 nM	CCc1cc(N2CCN3CCC[C@H]3C2)ccc1Nc1ncc(C(F)(F)F)c(NCCCN2CCOCCC2=O)n1 [Example 122]
300 to 600 nM	CC(C)c1cc(N2CCN(C)CC2)ccc1Nc1ncc(Br)c(NCCCN2CCOCCC2=O)n1 [Example 87]
1 to 100 nM	CN1CCN(c2ccc(Nc3ncc(C(F)(F)F)c(NCCCN4CCOCCC4=O)n3)c(Cl)c2)CC1 [Example 132]
> 600 nM	CCc1cc(N2CCN(C)CC2)ccc1Nc1cc(NCCCN2CCOCCC2=O)c(C(F)(F)F)cn1 [Example 92]
100 to 300 nM	CN1CCN(c2ccc(Nc3ncc(C(F)(F)F)c(NCCCN4CCOCCC4=O)n3)c(Br)c2)CC1 [Example 131]
1 to 100 nM	CN1C[C@@H]2C[C@H]1CN2c1ccc(Nc2ncc(C(F)(F)F)c(NCCCN3CCOCCC3=O)n2)c(C2CC2)c1 [Example 116]
300 to 600 nM	CC(C)c1cc(N2CCN(C)CC2)ccc1Nc1ncc(C(F)(F)F)c(NCCCN2CCCCC2=O)n1 [Example 33]
100 to 300 nM	CCc1cc(N2CCCN(C)CC2)ccc1Nc1ncc(C(F)(F)F)c(NCCCN2CCOCCC2=O)n1 [Example 79]

Structure (SMILES)	IC50
CCc1cc(N2CC3CCC(C2)N3C)ccc1Nc1ncc(C(F)(F)F)c(NCCCN2CCCCC2=O)n1 [Example 68]	100 to 300 nM
